Measurements published in patent US20200022370A1, “MICROBIOCIDAL OXADIAZOLE DERIVATIVES” (SYNGENTA PARTICIPATIONS AG, priority 2016, published 2020).

Key:
[1] = tested on: Puccinia recondita f. Sp. Tritici; assay: Puccinia recondita f. sp. tritici / wheat / leaf disc preventative (brown rust); type: in vivo; conditions: foliar, 200 ppm in the applied formulation, wheat leaf segments cv. Kanzler, inoculated 1 day after application, vs untreated, 7 to 9 days after application, read-out: disease control
Protocol: (§1) Leaf disks or leaf segments of various plant species are cut from plants grown in a greenhouse. The cut leaf disks or segments are placed in multiwell plates (24-well format) onto water agar. The leaf disks are sprayed with a test solution before (preventative) or after (curative) inoculation. Compounds to be tested are prepared as DMSO solutions (max. 10 mg/ml) which are diluted to the appropriate concentration with 0.025% Tween20 just before spraying. The inoculated leaf disks or segments are incubated under defined conditions (temperature, relative humidity, light, etc.) according to the respective test system. A single evaluation of disease level is carried out 3 to 14 days after inoculation, depending on the pathosystem. Percent disease control relative to the untreated check leaf disks or segments is then calculated.
Example 1: Fungicidal Activity Against Puccinia recondita f. Sp. Tritici/Wheat/Leaf Disc Preventative (Brown Rust)
Wheat leaf segments cv. Kanzler were placed on agar in multiwell plates (24-well format) and sprayed with the Formulated test compound diluted in water. The leaf disks were inoculated with a spore suspension of the fungus 1 day after application. The inoculated leaf segments were incubated at 19° C. and 75% relative humidity (rh) under a light regime of 12 hours light/12 hours darkness in a climate cabinet and the activity of a compound was assessed as percent disease control compared to untreated when an appropriate level of disease damage appears in untreated check leaf segments (7 to 9 days after application).
(§2) The following compounds at 200 ppm in the applied Formulation give at least 80% disease control in this test when compared to untreated control leaf disks under the same conditions, which show extensive disease development.

Phakopsora pachyrhizi = Phakopsora pachyrhizi / soybean / leaf disc preventative (Asian soybean rust); type: in vivo; conditions: foliar, 200 ppm in the applied formulation, soybean leaf disks, inoculated one day after application, vs untreated, 12 to 14 days after application, read-out: disease control
Protocol: as §1
Example 3: Fungicidal Activity Against Phakopsora pachyrhizi/Soybean/Leaf Disc Preventative (Asian Soybean Rust)
Soybean leaf disks are placed on water agar in multiwell plates (24-well format) and sprayed with the Formulated test compound diluted in water. One day after application leaf discs are inoculated by spraying a spore suspension on the lower leaf surface. After an incubation period in a climate cabinet of 24-36 hours in darkness at 20° C. and 75% rh leaf disc are kept at 20° C. with 12 h light/day and 75% rh. The activity of a compound is assessed as percent disease control compared to untreated when an appropriate level of disease damage appears in untreated check leaf disks (12 to 14 days after application).
as §2

[2] = tested on: Glomerella lacenarium (Colletotrichum lacenarium); assay: Glomerella lacenarium (Colletotrichum lacenarium) liquid culture / cucumber / preventative (anthracnose); type: cell-based; conditions: 20 ppm, liquid culture in PDB, 24° C., inhibition of growth measured photometrically 3 to 4 days after application, vs untreated, read-out: disease control
Protocol: Mycelia fragments or conidia suspensions of a fungus prepared either freshly from liquid cultures of the fungus or from cryogenic storage, are directly mixed into nutrient broth. DMSO solutions of the test compound (max. 10 mg/ml) are diluted with 0.025% Tween20 by a factor of 50 and 10 μl of this solution is pipetted into a microtiter plate (96-well format). The nutrient broth containing the fungal spores/mycelia fragments is then added to give an end concentration of the tested compound. The test plates are incubated in the dark at 24° C. and 96% relative humidity. The inhibition of fungal growth is determined photometrically after 2 to 7 days, depending on the pathosystem, and percent antifungal activity relative to the untreated check is calculated.
Example 4: Fungicidal Activity Against Glomerella lacenarium (Colletotrichum lacenarium) Liquid Culture/Cucumber/Preventative (Anthracnose)
Conidia of the fungus from cryogenic storage are directly mixed into nutrient broth (PDB-potato dextrose broth). After placing a (DMSO) solution of test compound into a microtiter plate (96-well format), the nutrient broth containing the fungal spores is added. The test plates are incubated at 24° C. and the inhibition of growth is measured photometrically 3 to 4 days after application.
The following compounds at 20 ppm in the applied Formulation give at least 80% disease control in this test when compared to untreated control under the same conditions, which show extensive disease development.

[3] = tested on: Puccinia recondita f. Sp. Tritici; assay: Puccinia recondita f. sp. tritici / wheat / leaf disc curative (brown rust); type: in vivo; conditions: foliar, 200 ppm in the applied formulation, wheat leaf segments cv. Kanzler, compound applied 1 day after inoculation, vs untreated, 6 to 8 days after application, read-out: disease control
Protocol: as §1
Example 2: Fungicidal Activity Against Puccinia recondita f. sp. tritici/Wheat/Leaf Disc Curative (Brown Rust)
Wheat leaf segments cv. Kanzler are placed on agar in multiwell plates (24-well format). The leaf segments are then inoculated with a spore suspension of the fungus. Plates were stored in darkness at 19° C. and 75% relative humidity. The Formulated test compound diluted in water was applied 1 day after inoculation. The leaf segments were incubated at 19° C. and 75% relative humidity under a light regime of 12 hours light/12 hours darkness in a climate cabinet and the activity of a compound was assessed as percent disease control compared to untreated when an appropriate level of disease damage appears in untreated check leaf segments (6 to 8 days after application).
as §2

COc1ccc(CC(=O)Nc2ccc(-c3noc(C(F)(F)F)n3)cc2)cc1 [Compound 1.71, 2-(4-methoxyphenyl)-N-[4-[5-(trifluoromethyl)-1,2,4-oxadiazol-3-yl]phenyl]acetamide]
≥ 80%: pest or weed control at 200 ppm [1] | pest or weed control at 200 ppm (Phakopsora pachyrhizi) | inhibition of growth at 20 ppm [2]

O=C(Nc1ccc(-c2noc(C(F)(F)F)n2)cc1)C1CCCCO1 (stereo not drawn) [Compound 1.72, N-[4-[5-(trifluoromethyl)-1,2,4-oxadiazol-3-yl]phenyl] tetrahydropyran-2-carboxamide]
≥ 80%: pest or weed control at 200 ppm [1] | pest or weed control at 200 ppm (Phakopsora pachyrhizi) | inhibition of growth at 20 ppm [2]

O=C(CCO)Nc1ccc(-c2noc(C(F)(F)F)n2)cc1 [Compound 1.75, 3-hydroxy-N-[4-[5-(trifluoromethyl)-1,2,4-oxadiazol-3-yl]phenyl] propanamide]
≥ 80%: pest or weed control at 200 ppm [1] | pest or weed control at 200 ppm [3] | inhibition of growth at 20 ppm [2]

CSCC(C)C(=O)Nc1ccc(-c2noc(C(F)(F)F)n2)cc1 (stereo not drawn) [Compound 1.77, 2-methyl-3-methylsulfanyl-N-[4-[5-(trifluoromethyl)-1,2,4-oxadiazol-3-yl]phenyl] propanamide]
≥ 80%: pest or weed control at 200 ppm [1] | pest or weed control at 200 ppm [3] | inhibition of growth at 20 ppm [2]

CC(C)CC(=O)Nc1ccc(-c2noc(C(F)(F)F)n2)cc1 [Compound 1.85, 3-methyl-N-[4-[5-(trifluoromethyl)-1,2,4-oxadiazol-3-yl]phenyl]butanamide]
≥ 80%: pest or weed control at 200 ppm [1] | pest or weed control at 200 ppm (Phakopsora pachyrhizi) | inhibition of growth at 20 ppm [2]

CCCC(C)C(=O)Nc1ccc(-c2noc(C(F)(F)F)n2)cc1 (stereo not drawn) [Compound 1.86, 2-methyl-N-[4-[5-(trifluoromethyl)-1,2,4-oxadiazol-3-yl]phenyl] pentanamide]
≥ 80%: pest or weed control at 200 ppm [1] | pest or weed control at 200 ppm (Phakopsora pachyrhizi) | inhibition of growth at 20 ppm [2]

Cc1ccnn1CC(=O)Nc1ccc(-c2noc(C(F)(F)F)n2)cc1 [Compound 1.87, 2-(5-methylpyrazol-1-yl)-N-[4-[5-(trifluoromethyl)-1,2,4-oxadiazol-3-yl]phenyl]acetamide]
≥ 80%: pest or weed control at 200 ppm [1] | pest or weed control at 200 ppm [3] | inhibition of growth at 20 ppm [2]

CC1CC1C(=O)Nc1ccc(-c2noc(C(F)(F)F)n2)cc1 (stereo not drawn) [Compound 1.90, 2-methyl-N-[4-[5-(trifluoromethyl)-1,2,4-oxadiazol-3-yl]phenyl]cyclo-propanecarboxamide]
≥ 80%: pest or weed control at 200 ppm [1] | pest or weed control at 200 ppm (Phakopsora pachyrhizi) | inhibition of growth at 20 ppm [2]

CCCCC(=O)Nc1ccc(-c2noc(C(F)(F)F)n2)cc1 [Compound 1.92, N-[4-[5-(trifluoromethyl)-1,2,4-oxadiazol-3-yl]phenyl]pentanamide]
≥ 80%: pest or weed control at 200 ppm [1] | pest or weed control at 200 ppm (Phakopsora pachyrhizi) | inhibition of growth at 20 ppm [2]

CC(C)OCC(=O)Nc1ccc(-c2noc(C(F)(F)F)n2)cc1 [Compound 1.101, 2-isopropoxy-N-[4-[5-(trifluoromethyl)-1,2,4-oxadiazol-3-yl]phenyl]acetamide]
≥ 80%: pest or weed control at 200 ppm [1] | pest or weed control at 200 ppm [3] | inhibition of growth at 20 ppm [2]

O=C(Cn1cccn1)Nc1ccc(-c2noc(C(F)(F)F)n2)cc1 [Compound 1.104, 2-pyrazol-1-yl-N-[4-[5-(trifluoromethyl)-1,2,4-oxadiazol-3-yl]phenyl]acetamide]
≥ 80%: pest or weed control at 200 ppm [1] | pest or weed control at 200 ppm [3] | inhibition of growth at 20 ppm [2]

O=C(CCc1ccncc1)Nc1ccc(-c2noc(C(F)(F)F)n2)cc1 [Compound 1.107, 3-(4-pyridyl)-N-[4-[5-(trifluoromethyl)-1,2,4-oxadiazol-3-yl]phenyl] propanamide]
≥ 80%: pest or weed control at 200 ppm [1] | pest or weed control at 200 ppm [3] | inhibition of growth at 20 ppm [2]

O=C(Nc1ccc(-c2noc(C(F)(F)F)n2)cc1)C1CCOC1 (stereo not drawn) [Compound 1.116, N-[4-[5-(trifluoromethyl)-1,2,4-oxadiazol-3-yl]phenyl] tetrahydrofuran-3-carboxamide]
≥ 80%: pest or weed control at 200 ppm [1] | pest or weed control at 200 ppm [3] | inhibition of growth at 20 ppm [2]

O=C(Nc1ccc(-c2noc(C(F)(F)F)n2)cc1)C1CC1(F)F (stereo not drawn) [Compound 1.118, 2,2-difluoro-N-[4-[5-(trifluoromethyl)-1,2,4-oxadiazol-3-yl]phenyl]cyclo-propanecarboxamide]
≥ 80%: pest or weed control at 200 ppm [1] | pest or weed control at 200 ppm (Phakopsora pachyrhizi) | inhibition of growth at 20 ppm [2]

O=C(CC1CC1(F)F)Nc1ccc(-c2noc(C(F)(F)F)n2)cc1 (stereo not drawn) [Compound 1.124, 2-(2,2-difluorocyclopropyl)-N-[4-[5-(trifluoromethyl)-1,2,4-oxadiazol-3-yl]phenyl]acetamide]
≥ 80%: pest or weed control at 200 ppm [1] | pest or weed control at 200 ppm (Phakopsora pachyrhizi) | inhibition of growth at 20 ppm [2]

O=C(CC(F)(F)F)Nc1ccc(-c2noc(C(F)(F)F)n2)cc1 [Compound 1.125, 3,3,3-trifluoro-N-[4-[5-(trifluoromethyl)-1,2,4-oxadiazol-3-yl]phenyl] propanamide]
≥ 80%: pest or weed control at 200 ppm [1] | pest or weed control at 200 ppm (Phakopsora pachyrhizi) | inhibition of growth at 20 ppm [2]

CON(C)C(=O)N(C)c1ccc(-c2noc(C(F)(F)F)n2)cc1 [Compound 1.126, 1-methoxy-1,3-dimethyl-3-[4-[5-(trifluoromethyl)-1,2,4-oxadiazol-3-yl]phenyl]urea]
≥ 80%: pest or weed control at 200 ppm [1] | pest or weed control at 200 ppm [3] | inhibition of growth at 20 ppm [2]

COCC(=O)N(C)c1ccc(-c2noc(C(F)(F)F)n2)cc1 [Compound 1.129, 2-methoxy-N-methyl-N-[4-[5-(trifluoromethyl)-1,2,4-oxadiazol-3-yl]phenyl]acetamide]
≥ 80%: pest or weed control at 200 ppm [1] | pest or weed control at 200 ppm [3] | inhibition of growth at 20 ppm [2]

CC1(C(=O)Nc2ccc(-c3noc(C(F)(F)F)n3)cc2)CC1 [Compound 2.11, 1-methyl-N-[4-[5-(trifluoromethyl)-1,2,4-oxadiazol-3-yl]phenyl] cyclopropane-carboxamide]
≥ 80%: pest or weed control at 200 ppm [1] | pest or weed control at 200 ppm (Phakopsora pachyrhizi) | inhibition of growth at 20 ppm [2]

O=C(Nc1ccc(-c2noc(C(F)(F)F)n2)cc1)C1CC1 [Compound 2.15, N-[4-[5-(trifluoromethyl)-1,2,4-oxadiazol-3-yl]phenyl] cyclopropane-carboxamide]
≥ 80%: pest or weed control at 200 ppm [1] | pest or weed control at 200 ppm [3] | inhibition of growth at 20 ppm [2]

CC(=O)N(C)c1ccc(-c2noc(C(F)(F)F)n2)cc1 [Compound 2.18, N-methyl-N-[4-[5-(trifluoromethyl)-1,2,4-oxadiazol-3-yl]phenyl] acetamide]
≥ 80%: pest or weed control at 200 ppm [1] | pest or weed control at 200 ppm [3] | inhibition of growth at 20 ppm [2]
